Format in all cases: biochemical
The target of one experiment is T1, human LSD1(171-852) (Homo sapiens, UniProt O60341).
T1 construct: to give hLSD1(171-852) purified product; made in house; host or cells: Escherichia coli C43(DE3) pLysS
As to the kind of experiment: Measurement of LSD1 inhibitory activity (time-resolved fluorescence, biotin-histone H3 mono methylated K4 peptide). The following applies: read-out: LSD1 IC50 value.

A further experiment has as its target T2, MAO-B (Homo sapiens, UniProt P27338).
T2 construct: purchased Sigma-Aldrich Co. LLC
T2 sequence (P27338 1-520): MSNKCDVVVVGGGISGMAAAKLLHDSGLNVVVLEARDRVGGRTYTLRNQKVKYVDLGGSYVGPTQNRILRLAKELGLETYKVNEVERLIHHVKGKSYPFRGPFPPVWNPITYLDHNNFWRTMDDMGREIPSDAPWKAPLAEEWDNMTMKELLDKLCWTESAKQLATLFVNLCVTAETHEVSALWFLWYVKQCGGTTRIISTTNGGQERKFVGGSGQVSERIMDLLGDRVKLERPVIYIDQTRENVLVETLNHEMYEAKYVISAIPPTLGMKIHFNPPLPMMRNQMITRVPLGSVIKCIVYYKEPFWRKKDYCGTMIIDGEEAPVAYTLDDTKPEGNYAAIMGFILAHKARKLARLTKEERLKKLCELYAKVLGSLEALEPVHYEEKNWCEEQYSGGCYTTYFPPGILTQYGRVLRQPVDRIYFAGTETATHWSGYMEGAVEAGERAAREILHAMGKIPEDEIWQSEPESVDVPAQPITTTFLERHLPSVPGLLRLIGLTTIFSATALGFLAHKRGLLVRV
As to the kind of experiment: Measurement of MAO-B inhibitory activity (MAO-Glo Assay). The essentials:
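Percent inhibition was calculated from luciferin-based luminescence, corrected with a blank lacking enzyme and a control lacking compound. The reaction ran 60 min at room temperature after adding MAO substrate (16 µM as added). This followed a 10 min compound–enzyme preincubation in HEPES pH 7.5 buffer.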

In a further experiment the target is T3, MAO-A (Homo sapiens, UniProt P21397).
T3 construct: purchased Sigma-Aldrich Co. LLC
T3 sequence (P21397 1-527): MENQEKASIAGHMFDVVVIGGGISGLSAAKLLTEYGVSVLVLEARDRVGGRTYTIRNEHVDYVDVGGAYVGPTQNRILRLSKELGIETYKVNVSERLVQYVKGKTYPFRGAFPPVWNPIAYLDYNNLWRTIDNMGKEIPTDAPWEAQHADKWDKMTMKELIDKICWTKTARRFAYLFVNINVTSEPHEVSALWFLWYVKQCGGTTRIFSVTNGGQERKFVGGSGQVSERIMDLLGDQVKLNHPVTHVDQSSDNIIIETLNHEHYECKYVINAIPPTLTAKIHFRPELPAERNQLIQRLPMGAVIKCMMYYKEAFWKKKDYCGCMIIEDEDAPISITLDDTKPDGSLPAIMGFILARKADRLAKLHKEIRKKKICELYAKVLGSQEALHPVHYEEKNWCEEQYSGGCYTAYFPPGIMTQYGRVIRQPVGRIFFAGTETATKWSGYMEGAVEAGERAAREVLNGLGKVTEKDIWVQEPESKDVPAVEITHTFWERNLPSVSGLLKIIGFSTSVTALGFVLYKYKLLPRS
Kind of experiment: Measurement of MAO-A inhibitory activity (MAO-Glo Assay). In outline: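 MAO-A (400 ng) was pre-incubated with compound 10 min at room temperature in 100 mM HEPES pH 7.5, 5% glycerol, then MAO substrate (160 μM stock) added for 60 min. Luciferin detection reagent, 20 min, luminescence; % inhibition against no-compound control minus no-enzyme blank.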

Counter-ions that a name gives are not always drawn. Some results are limits rather than exact numbers.

This passage reports IC50 results from patent publication US9682925B2, “Cyclopropaneamine compound” (TAKEDA PHARMACEUTICAL COMPANY LIMITED, priority 2011, dated 2017).

`O=C(Nc1ccc([C@@H]2C[C@H]2NC2CCCCCCC2)cc1)c1ccc(-c2ccccc2)cc1` (relative stereo) [Example 45, N-{4-[trans-2-(cyclooctyl-amino)cyclo-propyl]phenyl}-biphenyl-4-carboxamide]: the figures for the half-maximal inhibitory concentration (IC50) at human LSD1(171-852), on MAO-B and against MAO-A were 0.29 µM, greater than 10 µM and greater than 10 µM, respectively.

As to `O=C(Nc1ccc([C@@H]2C[C@H]2NCC2CC2)cc1)c1cccc(Cn2cncn2)c1` (relative stereo) [Example 147, N-(4-{trans-2-[(cyclopropylmethyl)amino]cyclopropyl}phenyl)-3-(1H-1,2,4-triazol-1-ylmethyl)benzamide hydrochloride], the values for the IC50 at human LSD1(171-852), against MAO-B and at MAO-A were less than 0.1 µM, greater than 10 µM and greater than 10 µM, respectively.

Take `CC(C)(C)c1cccc(C(=O)Nc2ccc([C@@H]3C[C@H]3NCc3ccccc3)cc2)c1` (relative stereo) [Example 9, N-{4-[trans-2-(benzylamino)cyclopropyl]phenyl}-3-tert-butylbenzamide]: the figures for the IC50 at human LSD1(171-852), against MAO-B and against MAO-A were 0.28 µM, greater than 10 µM and greater than 10 µM, respectively.

As for `O=C(Nc1ccc([C@@H]2C[C@H]2NCC2CC2)cc1)c1ccc(-n2ccnc2)cc1` (relative stereo) [Example 92, N-(4-{trans-2-[(cyclopropylmethyl)-amino]cyclopropyl}-phenyl)-4-(1H-imidazol-1-yl)benzamide], the IC50 at human LSD1(171-852) is less than 0.1 µM; at MAO-B, greater than 10 µM; at MAO-A it was 7.9 µM.

With `O=C(Nc1ccc([C@@H]2C[C@H]2NCc2ccccc2)cc1)c1cccc(N2CCCCC2)c1` (relative stereo) [Example 32, N-{4-[trans-2-(benzylamino)cyclopropyl]phenyl}-3-piperidin-1-ylbenzamide], the IC50 on human LSD1(171-852) is less than 0.1 µM; against MAO-B, greater than 10 µM; on MAO-A, greater than 10 µM.

`O=C(Nc1ccc([C@@H]2C[C@H]2NCc2cccnc2)cc1)c1ccccc1` (relative stereo) [Example 12, N-(4-{trans-2-[(pyridin-3-ylmethyl)amino]cyclopropyl}phenyl)-benzamide bis(trifluoroacetate)]: the IC50 is less than 0.1 µM at human LSD1(171-852), greater than 10 µM on MAO-B and 4.7 µM against MAO-A.

Turning to `O=C(Nc1ccc([C@@H]2C[C@H]2NCC2CC2)cc1)c1cc(-c2ccccc2)on1` (relative stereo) [Example 93, N-(4-{trans-2-[(cyclopropylmethyl)-amino]cyclopropyl}-phenyl)-5-phenyl-1,2-oxazole-3-carboxamide], the IC50 on human LSD1(171-852) was less than 0.1 µM; on MAO-B, greater than 10 µM; on MAO-A it was greater than 10 µM.

As for `O=C(N[C@H](Cc1ccccc1)C(=O)Nc1ccc(C2CC2NCc2ccccc2)cc1)OCc1ccccc1` (stereo in doubt) [Example 58, N-{4-[trans-2-(benzylamino)cyclopropyl]phenyl}-Nα-[(benzyloxy)carbonyl]-D-phenylalaninamide hydrochloride], the IC50 is 0.41 µM on human LSD1(171-852), greater than 10 µM against MAO-B and greater than 10 µM on MAO-A.

Take `O=C(Nc1ccc([C@@H]2C[C@H]2NCc2ccccc2)cc1)c1cccc(Oc2ccccc2)c1` (relative stereo) [Example 10, N-{4-[trans-2-(benzylamino)cyclopropyl]phenyl}-3-phenoxybenzamide]: the values for the IC50 on human LSD1(171-852), at MAO-B and against MAO-A were 0.14 µM, greater than 10 µM and 3.3 µM, respectively.

`O=C(Nc1ccc([C@@H]2C[C@H]2NCC2CC2)cc1)c1ccc2cc[nH]c2c1` (relative stereo) [Example 115, N-(4-{trans-2-[(cyclopropylmethyl)amino]cyclopropyl}-phenyl)-1H-indole-6-carboxamide]: the IC50 was less than 0.1 µM at human LSD1(171-852), greater than 10 µM against MAO-B and greater than 10 µM against MAO-A.

As to `CN1CCC(N[C@H]2C[C@@H]2c2ccc(NC(=O)c3cccc(C(F)(F)F)c3)cc2)CC1` (single isomer, unassigned) [Example 152, N-(4-{(1R,2S) or (1S,2R)-2-[(1-methylpiperidin-4-yl)amino]cyclopropyl}phenyl)-3-(trifluoromethyl)benzamide dihydrochloride], the IC50 on human LSD1(171-852) is less than 0.1 µM; on MAO-B, greater than 10 µM; on MAO-A it was greater than 10 µM.

As to `O=C(Nc1ccc([C@@H]2C[C@H]2NC2CCC(F)(F)CC2)cc1)c1cccc(C(F)(F)F)c1` (relative stereo) [Example 154, N-(4-{trans-2-[(4,4-difluorocyclohexyl)amino]cyclopropyl}phenyl)-3-(trifluoromethyl)benzamide hydrochloride], the IC50 on human LSD1(171-852) is less than 0.1 µM; at MAO-B, greater than 10 µM; at MAO-A it was greater than 10 µM.

On to `O=C(Nc1ccc([C@@H]2C[C@H]2NCC2CC2)cc1)c1ccc(-c2ccccc2Cl)cc1` (relative stereo) [Example 78, 2′-chloro-N-(4-{trans-2-[(cyclopropylmethyl)amino]cyclopropyl}phenyl)biphenyl-4-carboxamide hydrochloride], for which the IC50 on human LSD1(171-852) was less than 0.1 µM; on MAO-B, greater than 10 µM; against MAO-A, greater than 10 µM.

Take `Cc1nc(-c2cccc(C(=O)Nc3ccc([C@@H]4C[C@H]4NCC4CC4)cc3)c2)cs1` (relative stereo) [Example 101, N-(4-{trans-2-[(cyclopropylmethyl)-amino]cyclopropyl}-phenyl)-3-(2-methyl-1,3-thiazol-4-yl)benzamide]: the figures for the IC50 at human LSD1(171-852), against MAO-B and against MAO-A were less than 0.1 µM, greater than 10 µM and greater than 10 µM, respectively.

On to `O=C(Nc1ccc([C@@H]2C[C@H]2NC2CCN(c3ccccc3)CC2)cc1)c1cccc(C(F)(F)F)c1` (relative stereo) [Example 75, N-(4-{trans-2-[(1-phenylpiperidin-4-yl)amino]cyclopropyl}phenyl)-3-(trifluoromethyl)benzamide dihydrochloride], for which the IC50 on human LSD1(171-852) was less than 0.1 µM; at MAO-B it was greater than 10 µM; against MAO-A it was greater than 10 µM.

Consider `O=C(Nc1ccc([C@@H]2C[C@H]2NC2CCN(Cc3ccccc3)CC2)cc1)c1ccc(-c2ccccc2)cc1` (relative stereo) [Example 51, N-(4-{trans-2-[(1-benzylpiperidin-4-yl)amino]cyclo-propyl}phenyl)-biphenyl-4-carboxamide], for which the figures for the IC50 on human LSD1(171-852), on MAO-B and against MAO-A were 0.1 µM, greater than 10 µM and greater than 10 µM, respectively.

For `O=C(Nc1ccc([C@@H]2C[C@H]2NCc2ccccc2)cc1)c1cccc(Br)c1` (relative stereo) [Example 3, N-{4-[trans-2-(benzylamino)cyclopropyl]phenyl}-3-bromobenzamide], the IC50 was less than 0.1 µM at human LSD1(171-852), 9 µM against MAO-B and 4.4 µM against MAO-A.

For the compound `Cc1ccc(C(=O)Nc2ccc([C@@H]3C[C@H]3NCC3CC3)cc2)cc1C` (relative stereo) [Example 105, N-(4-{trans-2-[(cyclopropylmethyl)amino]cyclopropyl}phenyl)-3,4-dimethylbenzamide hydrochloride], the IC50 at human LSD1(171-852) was less than 0.1 µM; on MAO-B, greater than 10 µM; on MAO-A, greater than 10 µM.

`NS(=O)(=O)c1cccc(C(=O)Nc2ccc([C@@H]3C[C@H]3NCC3CC3)cc2)c1` (relative stereo) [Example 145, N-(4-{trans-2-[(cyclopropylmethyl)amino]cyclopropyl}phenyl)-3-sulfamoylbenzamide hydrochloride]: the IC50 is less than 0.1 µM at human LSD1(171-852), greater than 10 µM on MAO-B and greater than 10 µM at MAO-A.
